Laboratory results: US10035760B2, “Inhibitors of human immunodeficiency virus replication” (priority 2013, dated 2018)
Where two headings read alike, the source gives them in different places.

Tested on: recombinant NL4-3 virus (Renilla luciferase) in MT-2 cells
Test: HIV cell culture assay (antiviral activity, luciferase readout in infected MT-2 cells)
Format: cell-based
Conditions: Renilla
Procedure: HIV cell culture assay—MT-2 cells, 293T cells and the proviral DNA clone of NL4-3 virus were obtained from the NIH AIDS Research and Reference Reagent Program. MT-2 cells were propagated in RPMI 1640 media supplemented with 10% heat inactivated fetal bovine serum (FBS), 100 ug/ml penicillin G and up to 100 units/ml streptomycin. The 293T cells were propagated in DMEM media supplemented with 10% heat inactivated FBS, 100 ug/ml penicillin G and 100 ug/ml streptomycin. A recombinant NL4-3 proviral clone, in which a section of the nef gene was replaced with the Renilla luciferase gene, was used to make the reference virus used in these studies. The recombinant virus was prepared through transfection of the recombinant NL4-3 proviral clone into 293T cells using Transit-293 Transfection Reagent from Mirus Bio LLC (Madison, Wis.). Supernatent was harvested after 2-3 days after transfection, and the amount of virus present was titered in MT-2 cells using luciferase enzyme activity as a marker. Luciferase activity was quantitated using the EnduRen Live Cell Substrate from Promega (Madison, Wis.). Antiviral activities of compounds toward the recombinant virus were quantified by measuring luciferase activity in MT-2 cells infected for 4-5 days with the recombinant virus in the presence of serial dilutions of the compound.
The 50% effective concentration (EC50) was calculated by using the exponential form of the median effect equation where (Fa)=1/[1+(ED50/drug conc.)^m](Johnson V A, Byington R T. Infectivity Assay. In Techniques in HIV Research. ed. Aldovini A, Walker B D. 71-76. New York: Stockton Press. 1990).

[1] = NL43, read-out: Activity, antiviral activity class, recombinant NL4-3 Renilla luciferase virus in MT-2 cells
[2] = NL43, recombinant NL4-3 Renilla luciferase virus in MT-2 cells

## CN(C(=O)[C@H](Cc1ccccc1)NC(=O)NS(=O)(=O)c1ccccc1)c1ccc2c(c1)OCO2 [Example 1, (S)—N-(benzo[d][1,3]dioxol-5-yl)-N-methyl-3-phenyl-2-(3-(phenylsulfonyl)ureido)propanamide]
[1]
  EC50: 100 to 1000 nM
[2]
  EC50: 260 nM

## Cc1ccccc1S(=O)(=O)NC(=O)N[C@@H](Cc1ccccc1)C(=O)N(C)c1ccc2c(c1)OCO2 [Example 2, (S)—N-(benzo[d][1,3]dioxol-5-yl)-N-methyl-3-phenyl-2-(3-(o-tolylsulfonyl)ureido)propanamide]
[1]
  EC50: < 100 nM
[2]
  EC50: 70 nM

## CN(C(=O)[C@H](Cc1ccccc1)NC(=O)NS(=O)(=O)c1cccc(Cl)c1)c1ccc2c(c1)OCO2 [Example 3, (S)—N-(benzo[d][1,3]dioxol-5-yl)-2-(3-((3-chlorophenyl)sulfonyl)ureido)-N-methyl-3-phenylpropanamide]
[1]
  EC50: 100 to 1000 nM

## CN(C(=O)[C@H](Cc1ccccc1)NC(=O)NS(=O)(=O)C1(C)CC1)c1ccc2c(c1)OCO2 [Example 4, (S)—N-(benzo[d][1,3]dioxol-5-yl)-N-methyl-2-(3-((1-methylcyclopropyl)sulfonyl)ureido)-3-phenylpropanamide]
[1]
  EC50: 1000 to 10000 nM
[2]
  EC50: 1110 nM

## Cc1ccc(S(=O)(=O)NC(=O)N[C@@H](Cc2ccccc2)C(=O)N(C)c2ccc3c(c2)OCO3)cc1 [Example 5, (S)—N-(benzo[d][1,3]dioxol-5-yl)-N-methyl-3-phenyl-2-(3-tosylureido)propanamide]
[1]
  EC50: 100 to 1000 nM

## CN(C(=O)[C@H](Cc1ccccc1)NC(=O)NS(=O)(=O)c1ccc(Cl)cc1)c1ccc2c(c1)OCO2 [Example 6, (S)—N-(benzo[d][1,3]dioxol-5-yl)-2-(3-((4-chlorophenyl)sulfonyl)ureido)-N-methyl-3-phenylpropanamide]
[1]
  EC50: 100 to 1000 nM

## CN(C(=O)[C@H](Cc1ccccc1)NC(=O)NS(=O)(=O)c1ccccc1Cl)c1ccc2c(c1)OCO2 [Example 7, (S)—N-(benzo[d][1,3]dioxol-5-yl)-2-(3-((2-chlorophenyl)sulfonyl)ureido)-N-methyl-3-phenylpropanamide]
[1]
  EC50: < 100 nM

## COc1ccc(S(=O)(=O)NC(=O)N[C@@H](Cc2ccccc2)C(=O)N(C)c2ccc3c(c2)OCO3)cc1 [Example 8, (S)—N-(benzo[d][1,3]dioxol-5-yl)-2-(3-((4-methoxyphenyl)sulfonyl)ureido)-N-methyl-3-phenylpropanamide]
[1]
  EC50: 100 to 1000 nM
[2]
  EC50: 180 nM

## CN(C(=O)[C@H](Cc1ccccc1)NC(=O)NS(=O)(=O)c1ccccc1F)c1ccc2c(c1)OCO2 [Example 9, (S)—N-(benzo[d][1,3]dioxol-5-yl)-2-(3-((2-fluorophenyl)sulfonyl)ureido)-N-methyl-3-phenylpropanamide]
[1]
  EC50: < 100 nM

## CN(C(=O)[C@H](Cc1ccccc1)NC(=O)NS(=O)(=O)Cc1ccccc1)c1ccc2c(c1)OCO2 [Example 10, (S)—N-(benzo[d][1,3]dioxol-5-yl)-2-(3-(benzylsulfonyl)ureido)-N-methyl-3-phenylpropanamide]
[1]
  EC50: 100 to 1000 nM

## CN(C(=O)[C@H](Cc1ccccc1)NC(=O)NS(=O)(=O)c1cc(Cl)cc(Cl)c1)c1ccc2c(c1)OCO2 [Example 11, (S)—N-(benzo[d][1,3]dioxol-5-yl)-2-(3-((3,5-dichlorophenyl)sulfonyl)ureido)-N-methyl-3-phenylpropanamide]
[1]
  EC50: 100 to 1000 nM

## CN(C(=O)[C@H](Cc1ccccc1)NC(=O)NS(=O)(=O)c1cc(Br)ccc1Br)c1ccc2c(c1)OCO2 [Example 12, (S)—N-(benzo[d][1,3]dioxol-5-yl)-2-(3-((2,5-dibromophenyl)sulfonyl)ureido)-N-methyl-3-phenylpropanamide]
[1]
  EC50: < 100 nM

## Cc1ccc(C)c(S(=O)(=O)NC(=O)N[C@@H](Cc2ccccc2)C(=O)N(C)c2ccc3c(c2)OCO3)c1 [Example 13, (S)—N-(benzo[d][1,3]dioxol-5-yl)-2-(3-((2,5-dimethylphenyl)sulfonyl)ureido)-N-methyl-3-phenylpropanamide]
[1]
  EC50: < 100 nM
[2]
  EC50: 50 nM
